Measurements taken from ChEMBL document CHEMBL2074338, “Characterization of organic anion transport inhibitors using cells stably expressing human organic anion transporters” (Eur J Pharmacol, 2001).

Target: T1, Organic anion transporter 3 (Homo sapiens, UniProt Q8TCC7)
T1 sequence (Q8TCC7 whole entry): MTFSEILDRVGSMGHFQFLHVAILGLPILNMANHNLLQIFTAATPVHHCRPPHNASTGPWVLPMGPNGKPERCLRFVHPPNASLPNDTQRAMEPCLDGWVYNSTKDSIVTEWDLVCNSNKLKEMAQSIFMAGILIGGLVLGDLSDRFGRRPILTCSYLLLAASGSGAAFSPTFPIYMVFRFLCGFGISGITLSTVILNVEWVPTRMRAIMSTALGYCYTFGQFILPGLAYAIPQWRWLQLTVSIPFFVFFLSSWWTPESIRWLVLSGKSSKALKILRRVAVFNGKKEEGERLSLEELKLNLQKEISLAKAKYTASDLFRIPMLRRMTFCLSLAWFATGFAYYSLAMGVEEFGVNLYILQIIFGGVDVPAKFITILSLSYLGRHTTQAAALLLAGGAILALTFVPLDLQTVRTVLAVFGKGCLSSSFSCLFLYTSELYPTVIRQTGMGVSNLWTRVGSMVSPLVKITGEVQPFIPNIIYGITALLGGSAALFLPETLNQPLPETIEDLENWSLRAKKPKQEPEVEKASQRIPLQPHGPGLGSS
Experiment: TP_TRANSPORTER: inhibition of E1S uptake in OAT3-expressing S2 cells
Format: functional, cell-based

SMILES	Ki
O=C(O)CCNC(=O)c1ccccc1 [BETAMIPRON]	48.3 µM
CCCn1c(=O)c2[nH]c(C34CC5CC(CC3C5)C4)nc2n(CCC)c1=O [ROLOFYLLINE]	3.7 µM
CC1(C)C[C@@H]1C(=O)N/C(=C\CCCCSC[C@H](N)C(=O)O)C(=O)O [CILASTATIN]	231 µM
